Assay results: patent US20230109697A1, “COMBINED ANTI-CYTOKINE THERAPY TO REDUCE METASTATIC CANCER” (The Board of Trustees of the Leland Stanford Junior …, priority 2020, published 2023)

Experiments:
CCR2 chemokine receptor = target: T1, CCR2 chemokine receptor (Homo sapiens, UniProt P41597); details: cited from earlier work
T1 construct: endogenous in cells; host or cells: THP-1

[1] = tested on: non-polarized macrophages; experiment: Macrophage polarization by qPCR, MYC-HCC conditioned medium with recombinant cytokines; assay type: cell-based, mouse; details: recombinant cytokine added to cultured MYC-HCC cells
Experimental: FIG. 11. a. Quantification of migration of macrophages treated with MYC- or MYC/Twist1 -cells conditioned media. b. Expression of M1 marker genes in macrophages treated with conditioned media from MYC-HCC or MYC/Twist1-HCC. c. Spheroid co-culture assay of MYC/Twist1 -cells and macrophages after treatment with either CCL2 antibody or control antibody. F4/80 staining was performed to quantify number of spheroids with macrophage infiltration (*p<0.05). d. Experimental scheme- Conditioned medium of MYC-HCC cells treated with PBS or recombinant IL13 or CCL2 respectively was added to non-polarized macrophages for 48 hours. Macrophage polarization was assessed by qPCR for M2 markers (ARG1, […]) and M1 markers (IFNAR2, CCR2) (**p<0.005).
Quantitative Real-Time PCR: RNA was isolated using RNeasy plus mini kit according to the manufacturer’s instructions (Qiagen). cDNA was synthesized using SuperScript III (ThermoFisher). qPCR was performed using specific primers (Supplemental Table 1) and SYBR Green (Roche) in an Applied Biosystems Real Time PCR System (Life Technologies). Data were normalized to UBC. A minimum of 3 biological and 3 technical replicates were used for all qPCR experiments.

MYC-HCC = experiment: Orthotopic MYC-HCC transplant in NSG mice treated with recombinant cytokines; assay type: in vivo, mouse; details: for macrophage infiltration increase: IHC staining for F4/80; for metastases (FC): single cytokine vs control, 4 weeks
Experimental: FIG. 5 Both CCL2 and IL13 are required to promote Twist1-driven metastasis. a. Experimental scheme- Mice orthotopically transplanted with MYC-HCC cells were treated either with PBS or IL13 or CCL2 or CCL2+IL13 recombinant cytokines for 4 weeks. b. Representative histopathology of lung sections from MYC-HCC bearing mice treated with PBS or CCL2+IL13. c. Histopathology of liver ([…]) of MYC-HCC bearing mice treated with PBS or CCL2 or IL13 or CCL2+IL13 and IHC for F4/80 and MYC expression in each group. d. Quantification of number of metastatic nodules in the liver control treated or recombinant cytokine treated MYC-HCC bearing mice. (**p<0.01). e. Quantification of macrophage infiltration in liver by IHC staining for F4/80 of MYC-HCC bearing mice liver treated with PBS or CCL2 or IL13 or CCL2+IL13. f. Histopathology of lung (1X and 20X) of MYC-HCC bearing mice treated with PBS or CCL2 or IL13 or CCL2+IL13 and IHC for F4/80 and MYC expression in each group. g. Quantification of number of metastatic nodules in the lung of control treated or recombinant cytokine treated MYC-HCC bearing mice. (**p<0.01). h. Quantification of macrophage infiltration in lung by IHC staining for F4/80 of MYC-HCC bearing mice liver treated with PBS or CCL2 or IL13 or CCL2+IL13.
Orthotopic transplantation assay: An orthotopic mouse model was established by transplanting mouse MYC- or MYC/Twist1-HCC tumors (1 mm^3) under the liver capsule of NOD/Scid/Gamma (NSG) recipient mice. Bioluminescent (BLI) and MRI scans monitoring are used to monitor tumor engraftment and growth. Mice are euthanized once predetermined specific endpoints are met or based on morbidity whichever occurs first.
in vivo treatment mouse models: For antibody treatment, mice were injected i.p. with isotype control IgG or anti-CCL2 (BioXcell), -IL13 and -IL4 (Genentech) antibody (10 mg/kg body weight three times per week). For recombinant cytokines treatment, mice were injected i.p. three times per week with PBS or CCL2 (Peprotech, 500 ng/mouse), IL13 and IL4 (Peprotech, 250 ng/mouse). For clodronate liposomes (CL) treatment, CL or control liposomes were administered i.p. at 6.5 µl/g body weight 3 times per week to NSGs mice. CL and control treatments were administered to NSG mice previously injected i.v. with 0.5×10^6 MYC/twist1-HCC cells or orthotopically transplanted with MYC/Twist1-HCC tumors. Experimental and control mice were killed 4 weeks after tumor were transplanted. Primary tumors and lung metastases were collected for H&E staining and IHC.

T1 sequence (P41597 whole entry): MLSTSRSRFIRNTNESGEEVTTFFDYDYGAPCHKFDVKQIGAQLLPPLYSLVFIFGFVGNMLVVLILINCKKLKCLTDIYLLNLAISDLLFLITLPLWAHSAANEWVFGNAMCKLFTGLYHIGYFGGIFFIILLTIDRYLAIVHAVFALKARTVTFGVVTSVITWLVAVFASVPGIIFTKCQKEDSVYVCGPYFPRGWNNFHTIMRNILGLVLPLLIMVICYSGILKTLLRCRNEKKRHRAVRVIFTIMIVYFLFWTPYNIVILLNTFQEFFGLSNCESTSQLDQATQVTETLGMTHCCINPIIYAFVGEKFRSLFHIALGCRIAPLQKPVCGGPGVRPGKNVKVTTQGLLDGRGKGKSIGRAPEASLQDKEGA

CC(C)(C)N1CCN[C@@H](C(=O)N2CCN(C(=O)Nc3ccc(Cl)c(F)c3)CC2)C1 [AZD2423]
IC50 (CCR2 chemokine receptor; THP-1 cell line, pre-clinical studies, read-out: IC50, inhibition of MCP-1 induced calcium mobilization and chemotaxis): 4 nM
selectivity for CCR2 (CCR2 chemokine receptor): > 500 fold

CCL2: recombinant cytokine CCL2 (Peprotech)
M2 marker expression [1]: not
macrophage infiltration increase (MYC-HCC): 1.8 fold
metastases (FC) (MYC-HCC): 3 FC

IL13: recombinant cytokine IL13 (Peprotech)
M2 marker expression [1]: increased M2 marker expression
macrophage infiltration increase (MYC-HCC): did not increase macrophage infiltration
metastases (FC) (MYC-HCC): 1 FC

B1: recombinant IL4: recombinant cytokine IL4 (Peprotech), control (protein, UniProt P05112 25-153, looked up)
Interleukin-4: HKCDITLQEIIKTLNSLTEQKTLCTELTVTDIFAASKNTTEKETFCRAATVLRQFYSHHEKDTRCLGATAQQFHRHKQLIRFLKRLDRNLWGLAGLNSCPVKEANQSTLENFLERLKTIMREKYSKCSS
macrophage infiltration increase (MYC-HCC): did not elicit macrophage recruitment
effect on metastasis (MYC-HCC; mouse, in vivo): did not elicit macrophage recruitment or increase metastasis
